From patent US20140073637A1, “AMINO-SUBSTITUTED-ALKYLOXY-BENZO[E]PYRIDO[4,3-B]INDOLE DERIVATIVES AS NEW POTENT KINASE INHIBITORS” (INSTITUT CURIE, priority 2011, published 2014)

Key:
HeLa cells = details: previously reported in Hoang et al, 2009, indicated for comparison, read-out: IC50 (in nM), antiproliferative assay; cited from earlier work
Aurora A = molecular target: T1, Aurora A (Homo sapiens, UniProt O14965); test: Kinase profiling in vitro at 1 μM; format: biochemical; details: Aurora A; compound at 1 μM; read-out: percentage of remaining activity of recombinant kinase
T1 sequence (O14965 1-403): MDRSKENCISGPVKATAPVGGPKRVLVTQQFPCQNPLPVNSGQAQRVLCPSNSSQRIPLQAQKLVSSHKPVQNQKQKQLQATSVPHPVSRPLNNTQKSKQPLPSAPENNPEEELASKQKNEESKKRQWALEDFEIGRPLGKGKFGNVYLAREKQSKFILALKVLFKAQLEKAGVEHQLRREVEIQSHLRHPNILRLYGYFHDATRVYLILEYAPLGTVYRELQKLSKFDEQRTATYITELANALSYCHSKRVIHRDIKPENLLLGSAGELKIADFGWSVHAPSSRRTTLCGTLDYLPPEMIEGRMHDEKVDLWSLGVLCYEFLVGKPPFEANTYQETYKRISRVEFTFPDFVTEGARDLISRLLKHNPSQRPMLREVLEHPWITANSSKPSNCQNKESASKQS
Protocol: Assays were run in vitro against recombinant kinases. The activity is reported for each kinase, grey histograms for CH21, white for C14 and gradation grey for C1. […] Therefore, C1 and C14 affect differently the Aurora kinase family.
(§1) The specificity of C14 was tested, in vitro, against 121 kinases representative of the kinome. Assays run in duplicate, at the concentration of 1 μM, were performed by MRC (Dundee, UK). Results are represented in FIG. 1. The main targets are highlighted in FIG. 1B.
(§2) In addition, the percentage of remaining activity of recombinant kinases Aurora kinases A and B and Checkpoint kinases 1 and 2 at the concentration of 1 μM of C1, C2 and C14 have been determined.
(§3) The profiling was performed at the MRC (Dundee University), in duplicate, on a set of 121 kinases. The panel is representative of the major different classes of kinases. Compounds were used at the concentration of 1 μM. In vitro, IC50 were determined on recombinant kinases by Reaction biology Corp (USA).

Aurora B [1] = molecular target: T2, Aurora B (Homo sapiens, UniProt Q96GD4); test: Aurora B inhibition in cells: Histone H3 Ser10 phosphorylation by western blotting and immunofluorescence; format: cell-based; parameters: endogenous in cells; host or cells: U2OS (human osteosarcoma); HeLa also used for the maleate salts; details: U2OS mitotic extracts; 1 μM overnight; western blotting (FIG. 3)
T2 sequence (Q96GD4 whole entry): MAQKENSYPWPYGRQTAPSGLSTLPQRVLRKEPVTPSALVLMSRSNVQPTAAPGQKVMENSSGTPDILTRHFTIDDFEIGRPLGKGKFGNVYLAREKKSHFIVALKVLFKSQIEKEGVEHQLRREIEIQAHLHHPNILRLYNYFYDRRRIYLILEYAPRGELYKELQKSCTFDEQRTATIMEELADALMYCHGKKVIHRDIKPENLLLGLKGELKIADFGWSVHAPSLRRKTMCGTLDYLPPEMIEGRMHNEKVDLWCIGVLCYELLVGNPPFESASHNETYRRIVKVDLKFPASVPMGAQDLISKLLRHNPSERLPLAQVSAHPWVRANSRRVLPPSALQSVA
Protocol: Actin is used as control of quantity. Cells were incubated overnight in the presence of either C1, or C2 or CH21 or C14 or DMSO(C: control). All compounds were tested at 1 μM. Proteins were detected by western blotting.
Cells were incubated with the different molecules and Aurora B inhibition is estimated by western blotting (WB) and immuno fluorescent experiments. Histone H3 phosphorylated on Ser10 is used as a marker of Aurora B kinase activity and actin as an internal control. Each WB signal is compared to the control in the absence of compound. The efficiency estimated by WB is indicated by +++: very efficient inhibition to −: no inhibition. Immunofluorescent labelling of a mitotic cell by Histone H3 illustrates Aurora B kinase activity. However immunofluorescence is less sensitive than WB. Active molecules are underlined by a square and the intensity of the line indicates the efficiency of inhibition.
FIG. 10A: Immunofluorescence with phospho-Ser10-Histone H3 antibodies. Either the percentage of positive phospho-Ser10-Histone H3 is indicated or a representative mitosis shown. […] Immunofluorescent assays were realized with a specific phospho-antibody and mitotic U2OS cells are recognized by their DNA content stained with Hoechst. On the right, a representative cell or the percentage of H3-S10-P labelled mitosis.
(§4) FIG. 10B: Immunoblotting analysis of histone H3 phosphorylation. U2OS cells were incubated overnight with Nocodazole (50 nM) in the presence of either DMSO (Co) or Compounds (1 μM). Cells were then collected and lyzed. Identical amounts of the lyzed cell samples were run on 18% acrylamide gel containing SDS.
as §4, with “FIGS. 11B and 11C:” for “FIG. 10B:”, “U2OS and HeLa” for “U2OS”
Cells were incubated with the different molecules and Aurora B inhibition is estimated by western blotting and immunofluorescent experiments. Histone H3 phosphorylated on Ser10 is used as a marker of Aurora B kinase activity and actin as an internal control. Results are represented in FIGS. 4 and 10 and Table 3.
Cells were treated by compounds, harvested and lyzed in 9M urea then supplemented with Laemmli sample buffer. Cell extracts were subjected to SDS-PAGE and transferred to nitrocellulose filter (GE Healthcare). After blocking with 5% non-fat milk in PBS for at least 1 hour, the membranes were incubated with the primary antibodies. The following antibodies were used: phospho-Histone H3 Ser10 (1:2000, Upstate Biotechnology), anti LAST1 (Cell signalling), anti Aurora B (epitomics) and anti alpha-tubulin (Sigma) Anti-rabbit horseradish peroxidase (1:5000, GE Healthcare) was used as secondary antibodies. Bands were visualized by ECL technique (Amersham Bioscience).
Cells were seeded on glass coverslips and treated by compounds (1 μM) overnight. After treatment, cells were fixed in 4% formaldhehyde at 37° C. for 15 minutes, then permeabilized for 5 minutes with Triton X-100 in PBS.

121 kinases = test: Kinase profiling on a set of 121 kinases; format: biochemical; details: kinases presenting the highest inhibitions; lists not exhaustive
Protocol: FIG. 1A: The potential inhibition of C14 was tested against 121 kinases, in vitro, at the concentration of 1 μM. The kinase activities, in the presence of C14, are represented, each kinase being represented by a vertical bar. Only 18 kinases have less than 30% activity in the presence of C14.
as §1, §3

Chk2 = Chk2 (Homo sapiens, UniProt O96017); test: Kinase profiling in vitro at 1 μM; format: biochemical; details: compound at 1 μM, read-out: percentage of remaining activity of recombinant kinase
Sequence of Chk2 (O96017 whole entry, species assumed): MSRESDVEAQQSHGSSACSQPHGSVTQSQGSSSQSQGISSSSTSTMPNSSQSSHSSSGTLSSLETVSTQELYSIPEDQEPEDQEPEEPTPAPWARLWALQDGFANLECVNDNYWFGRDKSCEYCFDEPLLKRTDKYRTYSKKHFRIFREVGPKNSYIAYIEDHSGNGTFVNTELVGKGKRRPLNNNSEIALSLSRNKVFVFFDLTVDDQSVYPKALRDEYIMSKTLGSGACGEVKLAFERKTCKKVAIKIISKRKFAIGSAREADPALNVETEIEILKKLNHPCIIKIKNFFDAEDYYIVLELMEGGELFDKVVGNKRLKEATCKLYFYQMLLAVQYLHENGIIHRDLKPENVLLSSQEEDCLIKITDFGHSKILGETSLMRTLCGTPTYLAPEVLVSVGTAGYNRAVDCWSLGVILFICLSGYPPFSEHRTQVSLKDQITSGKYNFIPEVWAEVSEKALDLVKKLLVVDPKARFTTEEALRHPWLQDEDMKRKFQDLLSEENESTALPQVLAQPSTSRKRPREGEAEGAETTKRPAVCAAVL
Protocol: as §1, §2, §3

Aurora B [2] = molecular target: T2, Aurora B; test: Kinase profiling in vitro at 1 μM; format: biochemical; details: compound at 1 μM, read-out: percentage of remaining activity of recombinant kinase
Protocol: as §1, §2, §3

CHK1 = molecular target: T3, CHK1 (Homo sapiens, UniProt O14757); test: Kinase profiling in vitro at 1 μM; format: biochemical; details: Chk1; compound at 1 μM; read-out: percentage of remaining activity of recombinant kinase
T3 sequence (O14757 1-476): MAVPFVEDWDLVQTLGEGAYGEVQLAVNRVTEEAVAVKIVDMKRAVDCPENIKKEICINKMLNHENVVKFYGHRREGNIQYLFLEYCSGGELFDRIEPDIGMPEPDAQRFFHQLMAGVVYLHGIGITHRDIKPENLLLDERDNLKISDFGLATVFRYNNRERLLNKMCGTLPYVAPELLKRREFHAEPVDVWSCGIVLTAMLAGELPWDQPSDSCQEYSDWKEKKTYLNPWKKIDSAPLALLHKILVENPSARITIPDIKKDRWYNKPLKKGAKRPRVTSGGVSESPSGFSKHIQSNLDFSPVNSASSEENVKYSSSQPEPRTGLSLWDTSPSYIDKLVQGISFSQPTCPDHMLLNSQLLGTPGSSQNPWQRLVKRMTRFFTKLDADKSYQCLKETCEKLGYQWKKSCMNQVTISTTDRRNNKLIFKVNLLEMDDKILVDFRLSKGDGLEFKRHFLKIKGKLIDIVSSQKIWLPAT
Protocol: as §1, §2, §3

remaining activity at 1 µM (Aurora A): 11%
Aurora B inhibition in cellulo (Histone H3 phosphorylation, in words) (Aurora B [1]): mild inhibitory activity
Known Targets (%) (121 kinases): Aurora A Aurora B Chk1 Chk2 Flt3
remaining activity at 1 µM (Chk2): 3%
remaining activity at 1 µM (Aurora B [2]): 24%
remaining activity at 1 µM (CHK1): 12%
SMILES: COc1ccc2c(ccc3[nH]c4c(C)c[nH]c(=O)c4c32)c1 [Compound C2, reference compound]
IC50 (HeLa cells): 1160 ± 150 nM
